The subject of experiment [1] is Beet Armyworm (Spodoptera exigua). The experiment can be described thus: Bioassay on Beet Armyworm (BAW), 128-well diet tray assay. It counts as in vivo. The note with it: Beet Armyworm, Table ABC, read-out: BAW rating. An outline of the steps:
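Percent mortality, averaged over eight wells, was scored after five to seven days at 25° C under 14:10 light-dark. Each well's diet carried 50 μg/cm^2 of test molecule applied in acetone-water (90:10) and dried before one to five second-instar larvae were added.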

Experiment [2] relates to Cabbage Looper (Trichoplusia ni). Description: Bioassay on Cabbage Looper (CL), 128-well diet tray assay. It counts as in vivo. The note with it: Cabbage Looper, Table ABC, read-out: CL rating. An outline of the steps:
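Mortality after five to seven days at 25° C (14:10 photoperiod), averaged over eight wells per compound. Diet in each well carried 50 μg/cm^2 of dried test molecule and received one to five second-instar larvae.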

For the compound `C[C@@H](NC(=O)c1ccc(/C(F)=C/C(c2ccc(OCC(F)(F)F)c(Cl)c2)C(F)(F)F)cc1C(F)(F)F)C(=O)NCC(F)(F)F` (stereo partly drawn) [F162, 4-((Z)-3-(3-Chloro-4-(2,2,2-trifluoroethoxy)phenyl)-1,4,4,4-tetrafluorobut-1-en-1-yl)-N—((R)-1-oxo-1-((2,2,2-trifluoroethyl)amino)propan-2-yl)-2-(trifluoromethyl)benzamide], the pest or weed control at 50 µg/cm2 in experiment [1] and in experiment [2] was 50 to 100% throughout.

On to `COC(=O)CC(NC(=O)c1ccc(/C(F)=C/C(c2cc(Cl)c(Cl)c(Cl)c2)C(F)(F)F)cc1C(F)(F)F)C(F)(F)F` (stereo not shown) [F166, Methyl (Z)-4,4,4-trifluoro-3-(4-(1,4,4,4-tetrafluoro-3-(3,4,5-trichlorophenyl)but-1-en-1-yl)-2-(trifluoromethyl)benzamido)butanoate], for which the pest or weed control at 50 µg/cm2 in experiment [1] and in experiment [2] was 50 to 100% throughout.

For `C[C@@H](NC(=O)c1ccc(/C(F)=C/C(c2cc(Cl)c(Cl)c(Cl)c2)C(F)(F)F)cc1C(F)(F)F)C(=O)NC1CC(F)(F)C1` (stereo partly drawn) [F168, N—((R)-1-((3,3-difluorocyclobutyl)amino)-1-oxopropan-2-yl)-4-((Z)-1,4,4,4-tetrafluoro-3-(3,4,5-trichlorophenyl)but-1-en-1-yl)-2-(trifluoromethyl)benzamide], the pest or weed control at 50 µg/cm2 in experiment [1] and in experiment [2] was 50 to 100% throughout.

With `C[C@@H](NC(=O)c1ccc(/C(F)=C/C(c2cc(Cl)c(Cl)c(Cl)c2)C(F)(F)F)cc1C(F)(F)F)C(=O)N(O)CC(F)(F)F` (stereo partly drawn) [F169, N—((R)-1-(Hydroxy(2,2,2-trifluoroethyl)amino)-1-oxopropan-2-yl)-4-((Z)-1,4,4,4-tetrafluoro-3-(3,4,5-trichlorophenyl)but-1-en-1-yl)-2-(trifluoromethyl)benzamide], the pest or weed control at 50 µg/cm2 in experiment [1] and in experiment [2] was 50 to 100% each time.

As for `C[C@@H](NC(=O)c1ccc(/C(F)=C/C(c2ccc(Br)c(F)c2)C(F)(F)F)cc1C(F)(F)F)C(=O)NCC(F)(F)F` (stereo partly drawn) [F170, 4-((Z)-3-(4-Bromo-3-fluorophenyl)-1,4,4,4-tetrafluorobut-1-en-1-yl)-N—((R)-1-oxo-1-((2,2,2-trifluoroethyl)amino)propan-2-yl)-2-(trifluoromethyl)benzamide], the pest or weed control at 50 µg/cm2 in experiment [1] and in experiment [2] was 50 to 100% throughout.

Consider `O=C(N[C@@H]1CCN(CC(F)(F)F)C1=O)c1ccc(/C(F)=C/C(c2cc(Cl)c(Cl)c(Cl)c2)C(F)(F)F)cc1C(F)(F)F` (stereo partly drawn) [F171, N—((R)-2-Oxo-1-(2,2,2-trifluoroethyl)pyrrolidin-3-yl)-4-((Z)-1,4,4,4-tetrafluoro-3-(3,4,5-trichlorophenyl)but-1-en-1-yl)-2-(trifluoromethyl)benzamide], for which the pest or weed control at 50 µg/cm2 in experiment [1] and in experiment [2] was 50 to 100% in each case.

Consider `CNC(=O)[C@@H](C)NC(=O)c1ccc(/C(F)=C/C(c2cc(Cl)c(Cl)c(Cl)c2)C(F)(F)F)cc1C(F)(F)F` (stereo partly drawn) [F173, N—((R)-1-(Methylamino)-1-oxopropan-2-yl)-4-((Z)-1,4,4,4-tetrafluoro-3-(3,4,5-trichlorophenyl)but-1-en-1-yl)-2-(trifluoromethyl)benzamide], for which the pest or weed control at 50 µg/cm2 in experiment [1] and in experiment [2] was 50 to 100% throughout.

With `CCC(F)(F)C(/C=C(\F)c1ccc(C(=O)N[C@H](C)C(=O)NCC(F)(F)F)c(C(F)(F)F)c1)c1cc(Cl)c(Cl)c(Cl)c1` (stereo partly drawn) [F174, N—((R)-1-Oxo-1-((2,2,2-trifluoroethyl)amino)propan-2-yl)-4-((Z)-1,4,4-trifluoro-3-(3,4,5-trichlorophenyl)hex-1-en-1-yl)-2-(trifluoromethyl)benzamide], the pest or weed control at 50 µg/cm2 in experiment [1] and in experiment [2] was 50 to 100% throughout.

On to `C[C@@H](NC(=O)c1ccc(/C(F)=C/C(c2cc(Cl)cc(C(C)(F)F)c2)C(F)(F)F)cc1C(F)(F)F)C(=O)NCC(F)(F)F` (stereo partly drawn) [F175, 4-((Z)-3-(3-Chloro-5-(1,1-difluoroethyl)phenyl)-1,4,4,4-tetrafluorobut-1-en-1-yl)-N—((R)-1-oxo-1-((2,2,2-trifluoroethyl)amino)propan-2-yl)-2-(trifluoromethyl)benzamide], for which the pest or weed control at 50 µg/cm2 in experiment [1] and in experiment [2] was 50 to 100% in each case.

With `C[C@@H](NC(=O)c1ccc(/C(F)=C/C(c2cc(Cl)cc(CC(F)(F)F)c2)C(F)(F)F)cc1C(F)(F)F)C(=O)NCC(F)(F)F` (stereo partly drawn) [F176, 4-((Z)-3-(3-Chloro-5-(2,2,2-trifluoroethyl)phenyl)-1,4,4,4-tetrafluorobut-1-en-1-yl)-N—((R)-1-oxo-1-((2,2,2-trifluoroethyl)amino)propan-2-yl)-2-(trifluoromethyl)benzamide], the pest or weed control at 50 µg/cm2 in experiment [1] and in experiment [2] was 50 to 100% throughout.

For the compound `O=C(N[C@@H]1CON(CC(F)(F)F)C1=O)c1ccc(/C(F)=C/C(c2cc(Cl)cc(CC(F)(F)F)c2)C(F)(F)F)cc1C(F)(F)F` (stereo partly drawn) [F178, 4-((Z)-3-(3-Chloro-5-(2,2,2-trifluoroethyl)phenyl)-1,4,4,4-tetrafluorobut-1-en-1-yl)-N—((R)-3-oxo-2-(2,2,2-trifluoroethyl)isoxazolidin-4-yl)-2-(trifluoromethyl)benzamide], the pest or weed control at 50 µg/cm2 in experiment [1] and in experiment [2] was 50 to 100% throughout.

With `C[C@@H](NC(=O)c1ccc(/C(F)=C/C(c2cc(Cl)cc(OC(F)(F)F)c2)C(F)(F)F)cc1C(F)(F)F)C(=O)NCC(F)(F)F` (stereo partly drawn) [F181, 4-((Z)-3-(3-Chloro-5-(trifluoromethoxy)phenyl)-1,4,4,4-tetrafluorobut-1-en-1-yl)-N—((R)-1-oxo-1-((2,2,2-trifluoroethyl)amino)propan-2-yl)-2-(trifluoromethyl)benzamide], the pest or weed control at 50 µg/cm2 in experiment [1] and in experiment [2] was 50 to 100% each time.

In the case of `C[C@@H](NC(=O)c1ccc(/C(F)=C/C(c2ccc(OC(F)(F)F)c(Cl)c2)C(F)(F)F)cc1C(F)(F)F)C(=O)NCC(F)(F)F` (stereo partly drawn) [F182, 4-((Z)-3-(3-Chloro-4-(trifluoromethoxy)phenyl)-1,4,4,4-tetrafluorobut-1-en-1-yl)-N—((R)-1-oxo-1-((2,2,2-trifluoroethyl)amino)propan-2-yl)-2-(trifluoromethyl)benzamide], the pest or weed control at 50 µg/cm2 in experiment [1] and in experiment [2] was 50 to 100% in each case.

Consider `C[C@@H](NC(=O)c1ccc(/C(F)=C/C(c2ccc(Cl)c(OC(F)(F)F)c2)C(F)(F)F)cc1C(F)(F)F)C(=O)NCC(F)(F)F` (stereo partly drawn) [F183, 4-((Z)-3-(4-Chloro-3-(trifluoromethoxy)phenyl)-1,4,4,4-tetrafluorobut-1-en-1-yl)-N—((R)-1-oxo-1-((2,2,2-trifluoroethyl)amino)propan-2-yl)-2-(trifluoromethyl)benzamide], for which the pest or weed control at 50 µg/cm2 in experiment [1] and in experiment [2] was 50 to 100% in each case.

In the case of `C=Cc1cc(C(/C=C(\F)c2ccc(C(=O)N[C@H](C)C(=O)NCC(F)(F)F)c(C(F)(F)F)c2)C(F)(F)F)cc(C=C)c1Cl` (stereo partly drawn) [F184, 4-((Z)-3-(4-Chloro-3,5-divinylphenyl)-1,4,4,4-tetrafluorobut-1-en-1-yl)-N—((R)-1-oxo-1-((2,2,2-trifluoroethyl)amino)propan-2-yl)-2-(trifluoromethyl)benzamide], the pest or weed control at 50 µg/cm2 in experiment [1] and in experiment [2] was 50 to 100% in each case.

`C[C@@H](NC(=O)c1ccc(/C(F)=C/C(c2cc(Cl)c(Cl)c(Br)c2)C(F)(F)F)cc1C(F)(F)F)C(=O)NCC(F)(F)F` (stereo partly drawn) [F185, 4-((Z)-3-(3-Bromo-4,5-dichlorophenyl)-1,4,4,4-tetrafluorobut-1-en-1-yl)-N—((R)-1-oxo-1-((2,2,2-trifluoroethyl)amino)propan-2-yl)-2-(trifluoromethyl)benzamide]: the pest or weed control at 50 µg/cm2 in experiment [1] and in experiment [2] was 50 to 100% throughout.

As to `C=Cc1cc(C(/C=C(\F)c2ccc(C(=O)N[C@H](C)C(=O)NCC(F)(F)F)c(C(F)(F)F)c2)C(F)(F)F)cc(Cl)c1Cl` (stereo partly drawn) [F186, 4-((Z)-3-(3,4-dichloro-5-vinylphenyl)-1,4,4,4-tetrafluorobut-1-en-1-yl)-N—((R)-1-oxo-1-((2,2,2-trifluoroethyl)amino)propan-2-yl)-2-(trifluoromethyl)benzamide], the pest or weed control at 50 µg/cm2 in experiment [1] and in experiment [2] was 50 to 100% each time.

Take `C=C(C)c1cc(C(/C=C(\F)c2ccc(C(=O)N[C@H](C)C(=O)NCC(F)(F)F)c(C(F)(F)F)c2)C(F)(F)F)cc(Cl)c1Cl` (stereo partly drawn) [F187, 4-((Z)-3-(3,4-Dichloro-5-(prop-1-en-2-yl)phenyl)-1,4,4,4-tetrafluoro-but-1-en-1-yl)-N—((R)-1-oxo-1-((2,2,2-trifluoroethyl)amino)propan-2-yl)-2-(trifluoromethyl)benzamide]: the pest or weed control at 50 µg/cm2 in experiment [1] and in experiment [2] was 50 to 100% each time.

Take `C/C=C/c1cc(C(/C=C(\F)c2ccc(C(=O)N[C@H](C)C(=O)NCC(F)(F)F)c(C(F)(F)F)c2)C(F)(F)F)cc(Cl)c1Cl` (stereo partly drawn) [F188, 4-((Z)-3-(3,4-Dichloro-5-((E)-prop-1-en-1-yl)phenyl)-1,4,4,4-tetrafluorobut-1-en-1-yl)-N—((R)-1-oxo-1-((2,2,2-trifluoroethyl)amino)propan-2-yl)-2-(trifluoromethyl)benzamide]: the pest or weed control at 50 µg/cm2 in experiment [1] and in experiment [2] was 50 to 100% in each case.

Take `C#Cc1cc(C(/C=C(\F)c2ccc(C(=O)N[C@H](C)C(=O)NCC(F)(F)F)c(C(F)(F)F)c2)C(F)(F)F)cc(Cl)c1Cl` (stereo partly drawn) [F189, 4-((Z)-3-(3,4-Dichloro-5-ethynylphenyl)-1,4,4,4-tetrafluorobut-1-en-1-yl)-N—((R)-1-oxo-1-((2,2,2-trifluoroethyl)amino)propan-2-yl)-2-(trifluoromethyl)benzamide]: the pest or weed control at 50 µg/cm2 in experiment [1] and in experiment [2] was 50 to 100% each time.
